Assay results as given in patent US4948880A, “Anthracycline derivatives having cytostatic activity” (Behringwerke Aktiengesellschaft, priority 1986, dated 1990).
≈ marks a conversion by molar mass, not a printed value. Structures can show the parent of a compound that is named as a salt. Where two headings read alike, the source gives them in different places.

System: mouse L1210 leukemia cells
Test: Formation of L1210 leukemia cell colonies in soft agar (cytostatic activity)
Assay type: cell-based
Settings: colonies > 60 μm, % of untreated control; for IC50: Mus musculus
Protocol: The cytostatic activity of the compounds according to the invention have been tested using mouse L1210 leukemia cells. Use was made for this by the formation of L1210 leukemia cell colonies in agar plates. This method is used to detect the effect of the test substances on the growth behavior of the cells over 1 hour or over several generations. In this connection, with a cell cycle time of 10-12 hours, about 14 consecutive generations are observed in a 7-day duration of the test. In this test, the substances having cytostatic activity according to the invention bring about a reduction, compared with an untreated control sample, in the number of colonies which is to be observed.
Procedure for Determining the Formation of L1210 Leukemia Cell Colonies in Soft Agar
500 leukemia cells per plate were incubated with various concentrations of the test substance at 37° C. for 1 hour. These cells were then washed twice with McCoy 5A medium, 0.3% agar was added, and finally the mixture was poured into Petri dishes. Controls were incubated only with fresh medium. In place of the incubation for one hour, in some cases various concentrations and test substances were mixed with the upper agar layer in order in this way to achieve continuous exposure of the cells throughout the incubation time. After the agar had solidified, the plates were incubated in an incubator at 37° C. for 7 days (5% by volume CO2, 95% relative atmospheric humidity). Thereafter the number of colonies with a diameter of more than 60 μm which had formed was counted. The results have been stated as the number of colonies in treated agar plates as a percentage of the untreated control. The dose-effect graph obtained in this way was used to determine the IC50 as a measure of the activity of the substance. The results for the compounds described here are compiled in Table 1 which follows, comparing with adriamycin.

[1] = L1210, 168 h, read-out: Continuous incubation IC50, continuous exposure, test substance mixed with upper agar layer, 7 days, 37° C.
[2] = L1210, read-out: 1 h incubation IC50, 1 hour incubation with test substance at 37° C., then washed, 7 days in agar
[3] = L1210, 168 h, continuous exposure, test substance mixed with upper agar layer, 7 days, 37° C., read-out: Continuous incubation IC50
[4] = L1210, 1 hour incubation with test substance at 37° C., then washed, 7 days in agar, read-out: 1 h incubation IC50

| SMILES | IC50 [3] [µg/mL] | IC50 [4] [µg/mL] | IC50 [1] [µg/mL] | IC50 [2] [µg/mL] | 1 h incubation IC50 (1 hour incubation with test substance at 37° C., then washed, 7 days in agar, hydrochloride) [µg/mL] |
| --- | --- | --- | --- | --- | --- |
| CC[C@@]1(O)C[C@H](O[C@H]2C[C@H](NC)[C@H](O)[C@H](C)O2)c2c(O)c3c(c(O)c2[C@H]1O)C(=O)c1cccc(O)c1C3=O [compound 1, 7-O-(3'-N-Methyl-α-L-daunosaminyl)-β-rhodomycinone] | – | – | 0.02 (≈ 0.0378 µM) | 0.038 (≈ 0.0718 µM) | – |
| CC[C@@]1(O)C[C@H](O[C@H]2C[C@H](NC)[C@H](O)[C@H](C)O2)c2c(O)c3c(c(O)c2[C@H]1O)C(=O)c1cccc(O)c1C3=O [compound 2, 7-O-(3'-N-Methyl-α-L-daunosaminyl)-β-rhodomycinone hydrochloride] | – | – | – | – | 0.026 |
| CC[C@@]1(O)C[C@H](O[C@H]2C[C@H](N(C)C=O)[C@H](O)[C@H](C)O2)c2c(O)c3c(c(O)c2[C@H]1O)C(=O)c1cccc(O)c1C3=O [compound 6, 7-O-(3'-N-Formyl-3'-N-methyl-α-L-daunosaminyl)-β-rhodomycinone] | – | – | 0.044 (≈ 0.0789 µM) | 0.15 (≈ 0.269 µM) | – |
| CC[C@@]1(O)C[C@H](O[C@H]2C[C@H](N(C)CC#N)[C@H](O)[C@H](C)O2)c2c(O)c3c(c(O)c2[C@H]1O)C(=O)c1cccc(O)c1C3=O [compound 7, 7-O-(3'-N-Cyanomethyl-3'-N-methyl-α-L-daunosaminyl)-β-rhodomycinone] | – | – | 0.013 (≈ 0.0229 µM) | 0.021 (≈ 0.0369 µM) | – |
| CC[C@@]1(O)C[C@H](O[C@H]2C[C@H](N(C)CC#N)[C@H](O)[C@H](C)O2)c2c(O)c3c(c(O)c2[C@H]1O)C(=O)c1c(O)ccc(O)c1C3=O [compound 8, 7-O-(3'-N-Cyanomethyl-3'-N-methyl-α-L-daunosaminyl)-β-isorhodomycinone] | – | – | 0.042 (≈ 0.0718 µM) | 0.2 (≈ 0.342 µM) | – |
| CCN(C)[C@H]1C[C@H](O[C@H]2C[C@](O)(CC)[C@H](O)c3c(O)c4c(c(O)c32)C(=O)c2c(O)cccc2C4=O)O[C@@H](C)[C@H]1O [compound 11] | 0.007 (≈ 0.0126 µM) | 0.08 (≈ 0.143 µM) | – | – | – |
| CCCCN(C)[C@H]1C[C@H](O[C@H]2C[C@](O)(CC)[C@H](O)c3c(O)c4c(c(O)c32)C(=O)c2c(O)cccc2C4=O)O[C@@H](C)[C@H]1O [compound 13, 7-O-(3'-N-Butyl-3'-N-methyl-α-L-daunosaminyl)-β-rhodomycinone] | 0.018 (≈ 0.0307 µM) | 0.125 (≈ 0.213 µM) | – | – | – |
| CCCCCCN(C)[C@H]1C[C@H](O[C@H]2C[C@](O)(CC)[C@H](O)c3c(O)c4c(c(O)c32)C(=O)c2c(O)cccc2C4=O)O[C@@H](C)[C@H]1O [compound 19, 7-O-(3'-N-Hexyl-3'-N-methyl-α-L-daunosaminyl)-β-rhodomycinone] | 0.13 (≈ 0.212 µM) | 1.2 (≈ 1.96 µM) | – | – | – |
| CC[C@@]1(O)C[C@H](O[C@H]2C[C@H](N(C)Cc3ccc([N+](=O)[O-])cc3)[C@H](O)[C@H](C)O2)c2c(O)c3c(c(O)c2[C@H]1O)C(=O)c1cccc(O)c1C3=O [compound 24, 7-O-(3'-N-(4-Nitrobenzyl)-3'-N-methyl-α-L-daunosaminyl)-β-rhodomycinone] | – | – | 0.16 (≈ 0.241 µM) | 2.5 (≈ 3.76 µM) | – |
| CC[C@@]1(O)C[C@H](O[C@H]2C[C@H](N(C)Cc3ccc(C#N)cc3)[C@H](O)[C@H](C)O2)c2c(O)c3c(c(O)c2[C@H]1O)C(=O)c1cccc(O)c1C3=O [compound 25, 7-O-(3'-N-(4-Cyanobenzyl)-3'-N-methyl-α-L-daunosaminyl)-β-rhodomycinone] | – | – | 0.11 (≈ 0.171 µM) | > 1 | – |
| CCCCCN(C)[C@H]1C[C@H](O[C@H]2C[C@](O)(CC)[C@H](O)c3c(O)c4c(c(O)c32)C(=O)c2c(O)ccc(O)c2C4=O)O[C@@H](C)[C@H]1O [compound 27, 7-O-(3'-N-Methyl-3'-N-pentyl-α-L-daunosaminyl)-β-isorhodomycinone] | 0.06 (≈ 0.0975 µM) | > 1 | – | – | – |

Second part, led by results:

| IC50 [3] [µg/mL] | IC50 [4] [µg/mL] | SMILES | IC50 [1] [µg/mL] | IC50 [2] [µg/mL] | 1 h incubation IC50 (1 hour incubation with test substance at 37° C., then washed, 7 days in agar, hydrochloride) [µg/mL] |
| --- | --- | --- | --- | --- | --- |
| 0.11 (≈ 0.202 µM) | 0.13 (≈ 0.238 µM) | CC[C@@]1(O)C[C@H](O[C@H]2C[C@H](NC)[C@H](O)[C@H](C)O2)c2c(O)c3c(c(O)c2[C@H]1O)C(=O)c1c(O)ccc(O)c1C3=O [compound 3, 7-O-(3'-N-Methyl-α-L-daunosaminyl)-β-isorhodomycinone] | – | – | – |
| 0.28 (≈ 0.477 µM) | > 1 | CC[C@@]1(O)C[C@H](O[C@H]2C[C@H](NC)[C@H](O)[C@H](C)O2)c2c(O)c3c(c(O)c2[C@H]1C(=O)OC)C(=O)c1c(O)ccc(O)c1C3=O [compound 5, 7-O-(3'-N-Methyl-α-L-daunosaminyl)-ε-isorhodomycinone] | – | – | – |
| 0.028 (≈ 0.0452 µM) | 0.32 (≈ 0.516 µM) | CC[C@@]1(O)C[C@H](O[C@H]2C[C@H](N(C)Cc3ccccc3)[C@H](O)[C@H](C)O2)c2c(O)c3c(c(O)c2[C@H]1O)C(=O)c1cccc(O)c1C3=O [compound 9, 7-O-(3'-N-Benzyl-3'-N-methyl-α-L-daunosaminyl)-β-rhodomycinone] | – | – | – |
| 0.026 (≈ 0.0455 µM) | 0.1 (≈ 0.175 µM) | CCCN(C)[C@H]1C[C@H](O[C@H]2C[C@](O)(CC)[C@H](O)c3c(O)c4c(c(O)c32)C(=O)c2c(O)cccc2C4=O)O[C@@H](C)[C@H]1O [compound 12, 7-O-(3'-N-Methyl-3'-N-propyl-α-L-daunosaminyl)-β-rhodomycinone] | – | – | – |
| 0.5 (≈ 0.794 µM) | > 1 | CC[C@@]1(O)C[C@H](O[C@H]2C[C@H](N(C)C(C)=O)[C@H](O)[C@H](C)O2)c2c(O)c3c(c(O)c2[C@H]1C(=O)OC)C(=O)c1c(O)ccc(O)c1C3=O [compound 14, 7-O-(3'-N-Acetyl-3'-N-methyl-α-L-daunosaminyl)-ε-isorhodomycinone] | – | – | – |
| > 1 | > 1 | CC[C@@]1(O)C[C@H](O[C@H]2C[C@H](NC)[C@H](O)[C@H](C)O2)c2c(O)c3c(c(O)c2[C@H]1O[C@H]1C[C@H](NC)[C@H](O)[C@H](C)O1)C(=O)c1cccc(O)c1C3=O [compound 15, 7,10-O-bis-(3'-N-Methyl-α-L-daunosaminyl)-β-rhodomycinone] | – | – | – |
| 0.075 (≈ 0.125 µM) | 0.48 (≈ 0.8 µM) | CCCCCN(C)[C@H]1C[C@H](O[C@H]2C[C@](O)(CC)[C@H](O)c3c(O)c4c(c(O)c32)C(=O)c2c(O)cccc2C4=O)O[C@@H](C)[C@H]1O [compound 18, 7-O-(3'-N-Methyl-3'-N-pentyl-α-L-daunosaminyl)-β-rhodomycinone] | – | – | – |
| 0.38 (≈ 0.605 µM) | 1.9 (≈ 3.03 µM) | CCCCCCCN(C)[C@H]1C[C@H](O[C@H]2C[C@](O)(CC)[C@H](O)c3c(O)c4c(c(O)c32)C(=O)c2c(O)cccc2C4=O)O[C@@H](C)[C@H]1O [compound 20, 7-O-(3'-N-Heptyl-3'-N-methyl-α-L-daunosaminyl)-β-rhodomycinone] | – | – | – |
| 0.46 (≈ 0.717 µM) | 2.8 (≈ 4.36 µM) | CCCCCCCCN(C)[C@H]1C[C@H](O[C@H]2C[C@](O)(CC)[C@H](O)c3c(O)c4c(c(O)c32)C(=O)c2c(O)cccc2C4=O)O[C@@H](C)[C@H]1O [compound 21, 7-O-(3'-N-Octyl-3'-N-methyl-α-L-daunosaminyl)-β-rhodomycinone] | – | – | – |
| 0.026 (≈ 0.0397 µM) | 0.95 (≈ 1.45 µM) | CC[C@@]1(O)C[C@H](O[C@H]2C[C@H](N(C)Cc3ccc(Cl)cc3)[C@H](O)[C@H](C)O2)c2c(O)c3c(c(O)c2[C@H]1O)C(=O)c1cccc(O)c1C3=O [compound 22, 7-O-(3'-N-(4-Chlorobenzyl)-3'-N-methyl-α-L-daunosaminyl)-β-rhodomycinone] | – | – | – |
| 0.08 (≈ 0.115 µM) | > 1 | CC[C@@]1(O)C[C@H](O[C@H]2C[C@H](N(C)Cc3ccc(Br)cc3)[C@H](O)[C@H](C)O2)c2c(O)c3c(c(O)c2[C@H]1O)C(=O)c1cccc(O)c1C3=O [compound 23, 7-O-(3'-N-(4-Bromobenzyl)-3'-N-methyl-α-L-daunosaminyl)-β-rhodomycinone] | – | – | – |
| 0.0065 (≈ 0.00762 µM) | 0.12 (≈ 0.141 µM) | CC[C@@]1(O)C[C@H](O[C@H]2C[C@H](N(C)Cc3ccccc3)[C@H](O)[C@H](C)O2)c2c(O)c3c(c(O)c2[C@H]1O[C@H]1C[C@H](N(C)Cc2ccccc2)[C@H](O)[C@H](C)O1)C(=O)c1cccc(O)c1C3=O [compound 28, 7,10-O-bis-(3'-N-Benzyl-3'-N-methyl-α-L-daunosaminyl)-β-rhodomycinone] | – | – | – |
| 0.1 (≈ 0.123 µM) | 0.6 (≈ 0.738 µM) | CCCCCN(C)[C@H]1C[C@H](O[C@H]2C[C@](O)(CC)[C@H](O[C@H]3C[C@H](N(C)CCCCC)[C@H](O)[C@H](C)O3)c3c(O)c4c(c(O)c32)C(=O)c2c(O)cccc2C4=O)O[C@@H](C)[C@H]1O [compound 29, 7,10-O-bis-(3'-N-Methyl-3'-N-pentyl-α-L-daunosaminyl)-β-rhodomycinone] | – | – | – |
| 0.5 (≈ 0.92 µM) | 1.3 (≈ 2.39 µM) | CN[C@H]1C[C@H](O[C@H]2C[C@](O)(C(C)O)Cc3c(O)c4c(c(O)c32)C(=O)c2c(OC)cccc2C4=O)O[C@@H](C)[C@H]1O (stereo partly shown) [compound 32, 3'-N-Methyl-13-dihydrodaunorubicin] | – | – | – |
